Data as given in ChEMBL document CHEMBL1201862, “PubChem BioAssay data set” (2004).
The source made the active and inactive calls.

What was measured:
[1] = viability inhibitors of stage V gametocytes – luminescence, dose response (AID 1117278); type: functional, cell-based;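 further: gametocytes exposed to compound for 24 hours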
[2] = viability loss in human Jurkat cells – cell-based, luminescence, cytotoxicity control for P. falciparum gametocyte viability project, dose response (AID 1117277); type: functional;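 further: potency reflects loss of cellular ATP meaning fewer viable cells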
[3] = molecular target: T1, 1-phosphatidylinositol 4,5-bisphosphate phosphodiesterase gamma-1 (Homo sapiens, UniProt P19174); test: Counterscreen for inhibitors of phospholipase C isozymes (PLC-B3): Fluorescence-based biochemical high throughput dose response assay to identify inhibitors of phospholipase C isozymes (PLC-gamma1).
T1 sequence (P19174 whole entry): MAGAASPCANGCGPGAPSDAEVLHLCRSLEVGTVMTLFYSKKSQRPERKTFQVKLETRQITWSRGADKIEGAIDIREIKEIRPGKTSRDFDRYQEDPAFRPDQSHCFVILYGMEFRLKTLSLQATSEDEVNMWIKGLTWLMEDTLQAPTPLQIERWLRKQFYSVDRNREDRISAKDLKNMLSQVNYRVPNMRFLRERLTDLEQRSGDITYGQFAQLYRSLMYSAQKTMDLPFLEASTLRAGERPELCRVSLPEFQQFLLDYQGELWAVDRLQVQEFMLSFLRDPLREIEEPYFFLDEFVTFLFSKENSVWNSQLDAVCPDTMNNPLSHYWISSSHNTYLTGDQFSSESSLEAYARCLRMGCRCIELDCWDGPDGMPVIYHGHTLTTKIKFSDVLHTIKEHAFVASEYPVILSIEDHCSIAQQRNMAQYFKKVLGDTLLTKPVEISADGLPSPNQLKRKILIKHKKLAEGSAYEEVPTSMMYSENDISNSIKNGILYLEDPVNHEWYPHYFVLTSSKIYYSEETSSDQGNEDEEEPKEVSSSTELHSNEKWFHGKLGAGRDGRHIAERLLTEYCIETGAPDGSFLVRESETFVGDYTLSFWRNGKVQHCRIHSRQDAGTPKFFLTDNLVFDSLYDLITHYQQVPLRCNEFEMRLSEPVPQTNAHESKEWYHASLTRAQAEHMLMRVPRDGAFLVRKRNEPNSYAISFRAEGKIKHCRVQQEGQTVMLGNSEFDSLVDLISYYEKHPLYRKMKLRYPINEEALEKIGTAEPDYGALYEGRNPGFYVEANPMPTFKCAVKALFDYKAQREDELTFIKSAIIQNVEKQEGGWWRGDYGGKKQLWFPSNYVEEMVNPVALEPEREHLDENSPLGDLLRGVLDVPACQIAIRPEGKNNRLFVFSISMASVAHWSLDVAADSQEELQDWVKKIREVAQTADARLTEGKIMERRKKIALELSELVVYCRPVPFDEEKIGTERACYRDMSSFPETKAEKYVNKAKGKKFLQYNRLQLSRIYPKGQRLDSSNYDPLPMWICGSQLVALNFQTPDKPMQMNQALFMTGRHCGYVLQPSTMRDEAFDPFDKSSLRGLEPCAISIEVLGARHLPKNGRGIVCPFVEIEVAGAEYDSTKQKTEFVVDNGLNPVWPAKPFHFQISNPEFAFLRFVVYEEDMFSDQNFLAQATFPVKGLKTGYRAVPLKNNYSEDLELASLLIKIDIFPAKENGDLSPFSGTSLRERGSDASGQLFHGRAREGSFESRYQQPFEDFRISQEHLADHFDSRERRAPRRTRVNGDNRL

[4] = molecular target: T2, 1-phosphatidylinositol 4,5-bisphosphate phosphodiesterase beta-3 (Homo sapiens, UniProt Q01970); test: Fluorescence-based biochemical high throughput dose response assay to identify inhibitors of phospholipase C isozymes (PLC-B3).
T2 sequence (Q01970 whole entry): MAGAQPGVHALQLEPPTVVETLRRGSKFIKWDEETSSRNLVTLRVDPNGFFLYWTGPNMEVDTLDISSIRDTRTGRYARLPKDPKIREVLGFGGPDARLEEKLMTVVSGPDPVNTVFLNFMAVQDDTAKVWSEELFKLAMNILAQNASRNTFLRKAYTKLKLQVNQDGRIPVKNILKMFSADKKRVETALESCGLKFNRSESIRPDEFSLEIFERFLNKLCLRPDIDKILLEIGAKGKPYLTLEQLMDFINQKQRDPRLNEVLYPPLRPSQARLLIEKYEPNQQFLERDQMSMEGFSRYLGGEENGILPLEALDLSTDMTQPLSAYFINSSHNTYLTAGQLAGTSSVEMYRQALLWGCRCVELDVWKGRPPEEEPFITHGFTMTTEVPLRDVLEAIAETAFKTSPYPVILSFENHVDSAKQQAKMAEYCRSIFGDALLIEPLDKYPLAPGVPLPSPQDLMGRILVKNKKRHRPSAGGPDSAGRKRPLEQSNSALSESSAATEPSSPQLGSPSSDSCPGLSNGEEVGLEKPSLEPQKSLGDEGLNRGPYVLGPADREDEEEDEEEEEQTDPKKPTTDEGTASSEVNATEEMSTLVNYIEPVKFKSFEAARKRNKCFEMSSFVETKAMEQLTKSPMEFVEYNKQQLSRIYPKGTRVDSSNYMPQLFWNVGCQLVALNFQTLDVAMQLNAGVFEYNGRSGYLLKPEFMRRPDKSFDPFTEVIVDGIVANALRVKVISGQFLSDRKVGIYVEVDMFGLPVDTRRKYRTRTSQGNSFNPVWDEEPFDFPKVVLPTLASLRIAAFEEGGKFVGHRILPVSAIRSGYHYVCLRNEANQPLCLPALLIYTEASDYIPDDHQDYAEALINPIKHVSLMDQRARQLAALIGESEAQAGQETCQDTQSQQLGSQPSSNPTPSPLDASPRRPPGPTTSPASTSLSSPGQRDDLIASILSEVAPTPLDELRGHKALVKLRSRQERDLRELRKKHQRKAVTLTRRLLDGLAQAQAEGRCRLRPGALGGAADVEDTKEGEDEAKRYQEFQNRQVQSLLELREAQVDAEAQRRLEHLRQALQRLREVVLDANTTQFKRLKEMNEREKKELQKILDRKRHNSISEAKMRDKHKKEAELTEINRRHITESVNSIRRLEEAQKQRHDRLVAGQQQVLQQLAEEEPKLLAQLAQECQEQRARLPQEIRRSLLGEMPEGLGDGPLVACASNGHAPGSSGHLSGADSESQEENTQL

[5] = CellTiter-Glo luminescence survival assay, SW480 colon tumor line, concentration-response curve, half-maximal inhibitory concentration (AID 1117338); type: functional
[6] = RKO cell viability reduction, dose response, CellTiter-Glo luminescence (AID 1117322); type: functional
[7] = cytotoxicity toward HCT116 cells – cell-based, CellTiter-Glo luminescence, IC50, dose response (AID 1117332); type: functional; conditions: HCT-116
[8] = SNU-C1 cell viability reduction, dose response, CellTiter-Glo luminescence (AID 1117323); type: functional, cell-based
[9] = cytotoxicity toward Colo320 cells – cell-based, CellTiter-Glo luminescence, IC50, dose response (AID 1117334); type: functional; conditions: COLO 320
[10] = cytotoxicity toward HT-29 cells – cell-based, CellTiter-Glo luminescence, IC50, dose response (AID 1117330); type: functional
[11] = Reduced DLD-1 viability, concentration-response, CellTiter-Glo luminescence (AID 1117352); type: functional
[12] = luciferase reporter signal suppression in cells – H4 neuroglioma cells, luminescence, dose response (AID 1990); type: functional, cell-based
[13] = Luminescence Cell-Based Dose Response HTS to Identify Inhibitors of 5'UTR Stem-Loop Driven Prion Protein mRNA Translation in H4 Neuroglioblastoma Cells. [Related pubchem assays: 1827 (Project Summary), 1813 (Primary HTS)]; type: functional
[14] = alpha-synuclein stem-loop luciferase translation blockers – H4 neuroglioma cells, luminescence, confirmation (AID 1988); type: functional, cell-based
[15] = molecular target: T3, Protein skinhead-1 (Caenorhabditis elegans, UniProt P34707); type: functional
T3 sequence (P34707 whole entry): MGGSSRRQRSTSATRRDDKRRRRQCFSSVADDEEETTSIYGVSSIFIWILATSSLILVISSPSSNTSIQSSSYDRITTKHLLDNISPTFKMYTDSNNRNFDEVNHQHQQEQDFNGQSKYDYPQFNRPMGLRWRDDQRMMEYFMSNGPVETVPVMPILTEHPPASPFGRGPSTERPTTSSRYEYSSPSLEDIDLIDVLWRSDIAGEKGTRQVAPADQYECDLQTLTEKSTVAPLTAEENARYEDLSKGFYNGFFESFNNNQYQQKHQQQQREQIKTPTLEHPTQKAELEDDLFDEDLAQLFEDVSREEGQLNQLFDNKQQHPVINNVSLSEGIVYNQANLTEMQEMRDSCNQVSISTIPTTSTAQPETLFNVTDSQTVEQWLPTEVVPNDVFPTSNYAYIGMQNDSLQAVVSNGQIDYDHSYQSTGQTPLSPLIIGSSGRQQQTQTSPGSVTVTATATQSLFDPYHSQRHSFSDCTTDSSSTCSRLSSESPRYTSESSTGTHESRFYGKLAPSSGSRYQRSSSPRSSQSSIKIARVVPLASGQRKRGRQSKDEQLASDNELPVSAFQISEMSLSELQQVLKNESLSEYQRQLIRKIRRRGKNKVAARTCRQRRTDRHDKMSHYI

[16] = toxicity toward HepG2 liver cells – cell-based, plate reader, cherry-pick, antagonist series, cytotoxicity control, dose response (AID 743416); type: functional
[17] = blockers of bursicon-stimulated LGR2 cAMP reporter – cell-based, HEK293, CRE-luciferase reporter, cherry pick, set 2, dose response (AID 743343); type: functional;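 further: transfected cells were stimulated with diluted bursicon conditioned medium after compound addition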
[18] = blockade of melanocortin 4 receptor signaling – cell-based, plate reader, cherry pick, counter-screen for LGR2 antagonist project, dose response (AID 743444); type: functional;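 further: transfected HEK 293 cells stimulated with alpha-MSH peptide; potency of inhibitors of the alpha-MSH evoked signal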
[19] = viability loss in HEK293 cells – cell-based, plate reader, cherry-picked samples, cytotoxicity control, dose response (AID 743446); type: functional
[20] = molecular target: Paired box protein Pax-8 (Homo sapiens, UniProt Q06710); test: PAX8 transcriptional activity inhibition in RMG-I – RMG-I cells, luciferase, cherry-pick, dose response (AID 687027); type: functional, cell-based;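 further: luciferase reporter driven by Pax8 target thyroperoxidase promoter measured by SteadyGlo luminescence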
[21] = A2780 cell killing – plate reader, dry powder samples, cytotoxicity control, dose response (AID 743046); type: functional, cell-based
[22] = OVCAR-3 cell viability loss – plate reader, dry powder samples, PAX8 inhibitor project, dose response (AID 743044); type: functional, cell-based
[23] = OVCAR8 cell viability loss – plate reader, dry powder samples, PAX8 project, dose response (AID 743197); type: functional, cell-based; conditions: OVCAR-8
[24] = molecular target: T4, COUP transcription factor 2 (Homo sapiens, UniProt P24468); test: Luminescence-based cell-based high throughput dose response assay to identify inhibitors of COUP-TFII (NR2F2).; type: functional;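 further: HEK293 cells transiently cotransfected with COUP-TFII expression vector and reporter; luciferase reporter luminescence driven by COUP-TFII from the pX2-168 reporter plasmid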
T4 sequence (P24468 whole entry): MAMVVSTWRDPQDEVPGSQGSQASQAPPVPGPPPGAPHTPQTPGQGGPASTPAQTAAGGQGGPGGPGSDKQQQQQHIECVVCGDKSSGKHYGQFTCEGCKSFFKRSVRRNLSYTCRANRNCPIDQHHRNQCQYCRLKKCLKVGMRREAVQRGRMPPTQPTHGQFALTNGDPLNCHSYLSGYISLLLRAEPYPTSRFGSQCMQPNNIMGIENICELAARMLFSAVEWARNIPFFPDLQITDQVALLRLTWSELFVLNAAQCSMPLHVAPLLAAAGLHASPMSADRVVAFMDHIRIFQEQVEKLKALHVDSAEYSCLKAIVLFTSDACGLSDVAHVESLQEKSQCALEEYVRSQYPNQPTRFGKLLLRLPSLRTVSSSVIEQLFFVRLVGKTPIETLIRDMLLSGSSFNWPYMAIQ

Chain of Paired box protein Pax-8 (Q06710 whole entry): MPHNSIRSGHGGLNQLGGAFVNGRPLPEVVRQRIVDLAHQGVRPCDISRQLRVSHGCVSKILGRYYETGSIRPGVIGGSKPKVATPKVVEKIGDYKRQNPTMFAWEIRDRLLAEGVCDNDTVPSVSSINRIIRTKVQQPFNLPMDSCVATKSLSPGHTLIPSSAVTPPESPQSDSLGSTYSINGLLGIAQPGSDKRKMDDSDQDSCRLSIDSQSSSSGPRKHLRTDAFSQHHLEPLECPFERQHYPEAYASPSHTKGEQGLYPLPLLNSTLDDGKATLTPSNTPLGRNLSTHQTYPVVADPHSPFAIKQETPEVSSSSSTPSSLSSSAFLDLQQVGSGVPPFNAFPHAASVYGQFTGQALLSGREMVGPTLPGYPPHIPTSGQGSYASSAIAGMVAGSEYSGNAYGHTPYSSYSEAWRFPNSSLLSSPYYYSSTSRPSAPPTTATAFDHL

Cc1ccc(C(=O)N2CCN(S(=O)(=O)c3ccccc3)CC2)cc1
IC50 [1]: > 109 µM (inactive) | IC50 [2]: > 83.3 µM (inactive)

Cc1cc(NC(=O)c2ccccc2)ncc1NC(=O)c1cccs1
IC50 [3]: > 122 µM (inactive) | IC50 [4]: > 122 µM (inactive)

CN(CCOc1ccc(CC2SC(=O)NC2=O)cc1)c1ccccn1 (stereo unspecified) [ROSIGLITAZONE]
IC50 [5]: > 20 µM (inactive) | IC50 [6]: > 20 µM (inactive) | IC50 [7]: > 20 µM (inactive) | IC50 [8]: 8.69 µM (inactive) | IC50 [9]: > 20 µM (inactive) | IC50 [10]: > 20 µM (inactive) | IC50 [11]: > 20 µM (inactive)

CCCOc1ccc2cc(-c3ccccn3)c(=O)oc2c1
EC50 [12]: 2.91 µM (active) | EC50 [13]: 9.71 µM (active) | EC50 [14]: 2.83 µM (active) | IC50 [15]: > 100 µM (inactive) | AC50 [16]: > 52 µM (inactive) | AC50 [17]: 1.48 µM (active) | AC50 [18]: 2 µM (active) | AC50 [19]: 33.6 µM (active)

C[C@H]1CCCCO[C@@H](CN(C)Cc2ccc(C(F)(F)F)cc2)[C@@H](C)CN([C@@H](C)CO)C(=O)c2cc(NC(=O)Cc3ccccc3)ccc2O1
AC50 [20]: 7.94 µM (active) | AC50 [21]: 0.963 µM (active) | AC50 [22]: 11.4 µM (active) | AC50 [23]: 30.8 µM (active)

Cn1c2ccccc2c(=O)c2cc(C#CC3(O)CCCCC3)ccc21
IC50 [24]: 12 µM (inactive)

CS(=O)(=O)Cc1cc(N2CCCC2)nc(-c2ccccc2)n1
IC50 [1]: > 109 µM (inactive) | IC50 [2]: > 83.3 µM (inactive)
